Laboratory results taken from patent US10307587B2, “Methods and devices for treating the skin” (VOMARIS INNOVATIONS, INC., priority 2014, dated 2019).

What was measured:
[1] = test system: HUVEC cells; test: EF-induced reorientation of endothelial cells (orientation index Oi); format: cell-based, human; conditions: for orientation response / reorientation of cells in an EF: drug 50 μM, 1 hour before and during EF exposure
Protocol: HUVEC cells were seeded in a trough formed by two parallel (1 cm apart) strips of glass coverslip (No. 1, length of 22 mm) fixed to the base of the dish with silicone grease. Scratch lines were made perpendicular to the long axis of the chamber with a fine sterile needle and used as reference marks for directed cell migration. Cells were incubated for 24-48 hours (37° C., 5% CO2) before a roof coverslip was applied and sealed with silicone grease. The final dimensions of the chamber, through which current was passed, were 22×10×0.2 mm. Agar-salt bridges not less than 15 cm long were used to connect silver/silver-chloride electrodes in beakers of Steinberg's solution (58 mM NaCl, 0.67 mM KCl, 0.44 mM Ca(NO3)2, 1.3 mM MgSO4, 4.6 mM Trizma base, pH 7.8-8.0), to pools of excess culture medium at either side of the chamber. Field strengths were measured directly at the beginning of, the end of and during each experiment. No fluctuations in field strength were observed. […] (50 μM), the Rho kinase inhibitor Y27632 (50 μM), both Akt and Rho kinase inhibitors (10 μM each) or latrunculin (50 nM) for 1 hour before EF stimulation. The same concentration of drug was present during EF exposure in a CO2 incubator.
A series of images was taken with an image analyser immediately before EF exposure and at 4, 8 and 24 hours of EF exposure. Cell orientation was quantified as an orientation index (Oi), which is defined as Oi=cos 2(α), where α is the angle formed by the long axis of a cell with a line drawn perpendicular to the field lines. A cell with its long axis parallel to the vector of the EF will have an Oi of −1, and a cell with its long axis exactly perpendicular to the EF vector will have an Oi of +1. […] The significance of this two-dimensional orientation distribution against randomness was calculated using Rayleigh's distribution. A long:short axis ratio was calculated for assessment of elongation.
Cell alignment was quantified using an orientation index Oi=cos 2(α), where α is the angle formed between the long axis of a cell and a line drawn perpendicular to the field lines. […]

[2] = test system: Human keratinocytes; test: in vitro scratch assay (cell migration); format: cell-based; conditions: for increased keratinocyte migration observed with LLEC, under N-acetyl cysteine: 5 mM, pretreated 1 h before scratch assay
Excerpt: The in vitro scratch assay is an easy, low-cost and well-developed method to measure cell migration in vitro. The basic steps involve creating a “scratch” in a cell monolayer, capturing images at the beginning and at regular intervals during cell migration to close the scratch, and comparing the images to quantify the migration rate of the cells. Compared to other methods, the in vitro scratch assay is particularly suitable for studies on the effects of cell-matrix and cell-cell interactions on cell migration, mimic cell migration during wound healing in vivo and are compatible with imaging of live cells during migration to monitor intracellular events if desired. In addition to monitoring migration of homogenous cell populations, this method has also been adopted to measure migration of individual cells in the leading edge of the scratch. Not taking into account the time for transfection of cells, in vitro scratch assay per se usually takes from several hours to overnight.
Human keratinocytes were plated under plated under placebo or a LLEC system (labeled “PROCELLERA®”). Cells were also plated under silver-only or zinc-only dressings. After 24 hours, the scratch assay was performed.
Measurement of the potential difference between adjacent zinc and silver dots when the LLEC is in contact with de-ionized water yielded a value of about 0.2 Volts. Though the potential difference between zinc and silver dots can be measured, non-intrusive measurement of the electric field arising from contact between the LLEC and liquid medium was difficult. Keratinocyte migration was accelerated by exposure to an Ag/Zn LLEC.
Scratch assay—A cell migration assay was performed using culture inserts (IBIDI®, Verona, Wis.) according to the manufacturers instructions. Cell migration was measured using time-lapse phase-contrast microscopy following withdrawal of the insert. Images were analyzed using the AxioVision Rel 4.8 software.
N-Acetyl Cysteine Treatment—Cells were pretreated with 5 mM of the thiol antioxidant N-acetylcysteine (Sigma) for 1 h before start of the scratch assay. […]

[3] = test system: HUVEC cells; test: EF-induced elongation of endothelial cells (long:short axis ratio); format: cell-based, human; conditions: drug 50 μM
Protocol: HUVEC cells were seeded in a trough formed by two parallel (1 cm apart) strips of glass coverslip (No. 1, length of 22 mm) fixed to the base of the dish with silicone grease. Scratch lines were made perpendicular to the long axis of the chamber with a fine sterile needle and used as reference marks for directed cell migration. Cells were incubated for 24-48 hours (37° C., 5% CO2) before a roof coverslip was applied and sealed with silicone grease. The final dimensions of the chamber, through which current was passed, were 22×10×0.2 mm. […] Field strengths were measured directly at the beginning of, the end of and during each experiment. […]
A series of images was taken with an image analyser immediately before EF exposure and at 4, 8 and 24 hours of EF exposure. Cell orientation was quantified as an orientation index (Oi), which is defined as Oi=cos 2(α), where α is the angle formed by the long axis of a cell with a line drawn perpendicular to the field lines. […] The significance of this two-dimensional orientation distribution against randomness was calculated using Rayleigh's distribution. A long:short axis ratio was calculated for assessment of elongation.
HUVEC cells elongated dramatically in an EF. […] We quantified the elongation of the cells using a long:short axis ratio. […]

| Molecule | orientation response / reorientation of cells in an EF [1] | long:short axis ratio in EF-treated cells [3] | also measured |
| --- | --- | --- | --- |
| N#CC(=C(/N)Sc1ccccc1N)/C(C#N)=C(\N)Sc1ccccc1N [U0126] | – | – | Oi [1]: 0.33±0.03 |
| COc1cc2ncnc(Nc3ccc(Cl)cc3F)c2cc1OC [VEGFR inhibitor, 4-[(4′-chloro-2′-fluoro)phenylamino]-6,7-dimethoxyquinazoline] | completely abolished | – | – |
| CC(=O)N[C@@H](CS)C(=O)O [N-Acetyl Cysteine, N-acetylcysteine] | – | – | increased keratinocyte migration observed with LLEC, under N-acetyl cysteine [2]: failed to reproduce the increased migration; increased keratinocyte migration observed with LLEC, under N-acetyl cysteine ([2]; listed as N-acetyl cysteine): prevented |
| COc1cc([C@@H]2c3cc4c(cc3[C@H](O)[C@H]3COC(=O)[C@@H]23)OCO4)cc(OC)c1OC [IGF-1R inhibitor, picropodophyllin] | – | – | increased keratinocyte migration observed with LLEC, under IGF-1R inhibitor ([2]; 50 nM picropodophyllin just prior to scratch assay): attenuated the increased keratinocyte migration |
| 1-L-6-hydroxymethyl-chiro-inositol 2-[(R)-2-O-methyl-3-O-octadecylcarbonate] [Akt inhibitor] | significantly decreased | significantly decreased | – |
| C[C@@H](N)[C@H]1CC[C@H](C(=O)Nc2ccncc2)CC1 [Y27632] | – | significantly decreased | – |
